Source: patent EP1673354B1, “ARYLINDENOPYRIDINES AND ARYLINDENOPYRIMIDINES AND THEIR USE AS ADENOSINE A2A RECEPTOR ANTAGONISTS” (Ortho-McNeil Pharmaceutical, Inc., priority 2003, dated 2005)
Read-outs that look alike come from different tables or passages of the source.

Key:
[1] = molecular target: T1, human A2a adenosine receptor (Homo sapiens, UniProt P29274); experiment: Ligand binding assay for adenosine A2a receptor ([3H]CGS21680, HEK293 plasma membrane)
T1 construct: purchased PerkinElmer RB-HA2a; host or cells: HEK293 cell plasma membrane
T1 sequence (P29274 whole entry): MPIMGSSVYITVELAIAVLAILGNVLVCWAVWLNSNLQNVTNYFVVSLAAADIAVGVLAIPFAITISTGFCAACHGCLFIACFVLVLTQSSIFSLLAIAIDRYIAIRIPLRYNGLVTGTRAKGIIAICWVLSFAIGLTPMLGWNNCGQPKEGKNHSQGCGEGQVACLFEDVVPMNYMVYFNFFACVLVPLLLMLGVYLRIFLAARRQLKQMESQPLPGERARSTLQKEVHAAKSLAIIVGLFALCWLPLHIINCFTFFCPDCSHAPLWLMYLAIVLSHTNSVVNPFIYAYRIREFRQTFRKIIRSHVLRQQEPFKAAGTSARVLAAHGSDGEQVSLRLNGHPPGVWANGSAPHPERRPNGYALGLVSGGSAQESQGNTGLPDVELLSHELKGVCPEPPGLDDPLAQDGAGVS
Protocol: Ligand Binding Assay for Adenosine A2a Receptor
Ligand binding assay of adenosine A2a receptor was performed using plasma membrane of HEK293 cells containing human A2a adenosine receptor (PerkinElmer, RB-HA2a) and radioligand [^3H]CGS21680 (PerkinElmer, NET1021). Assay was set up in 96-well polypropylene plate in total volume of 200 µl by sequentially adding 20 µL1:20 diluted membrane, 130 µLassay buffer (50 mM Tris·HCl, pH7.4 10 mM MgCl2, 1 mM EDTA) containing [^3H] […] Nonspecific binding was determined by […] NECA. Reaction was carried out at room temperature for 2 hours before filtering through 96-well GF/C filter plate pre-soaked in 50 mM Tris·HCl, pH7.4 containing 0.3% polyethylenimine. Plates were then washed 5 times with cold 50 mM Tris·HCl, pH7.4, dried and sealed at the bottom. Microscintillation fluid 30 µl was added to each well and the top sealed. Plates were counted on Packard Topcount for [^3H]. Data was analyzed in Microsoft Excel and GraphPad Prism programs.

[2] = molecular target: T2, human adenosine A2a receptors (Homo sapiens, UniProt P29274); experiment: Adenosine A2a receptor functional assay, antagonist mode (cAMP-inducible beta-galactosidase reporter, 50 nM NECA); assay type: cell-based; details: CHO-K1 cells, read-out: Ki (nM) A2a antagonist function
T2 construct: expressed in transfected cells; host or cells: CHO-K1 cells with cAMP-inducible beta-galactosidase reporter gene
T2 sequence (P29274 whole entry): as above
Protocol: Adenosine A2a Receptor Functional Assay
CHO-K1 cells overexpressing human adenosine A2a receptors and containing cAMP-inducible beta-galactosidase reporter gene were seeded at 40-50K/well into 96-well tissue culture plates and cultured for two days. On assay day, cells were washed once with 200 µL assay medium (F-12 nutrient mixture/0.1 % BSA). For agonist assay, adenosine A2a receptor agonist NECA was subsequently added and cell incubated at 37°C, 5% CO2 for 5 hrs before stopping reaction. In the case of antagonist assay, cells were incubated with antagonists for 5 minutes at R.T. followed by addition of 50 nM NECA. Cells were then incubated at 37°C, 5% CO2 for 5 hrs before stopping experiments by washing cells with PBS twice. 50 µL 1X lysis buffer (Promega, 5X stock solution, needs to be diluted to 1X before use) was added to each well and plates frozen at -20°C. For β-galactosidase enzyme colorimetric assay, plates were thawed out at room temperature and 50 µL 2X assay buffer (Promega) added to each well. Color was allowed to develop at 37°C for 1 h or until reasonable signal appeared. Reaction was then stopped with 150 µL 1 M sodium carbonate. […] Data was analyzed in Microsoft Excel and GraphPad Prism programs.

[3] = molecular target: T3, Adenosine A1 receptor (Homo sapiens, UniProt P30542); experiment: A1 antagonist function (no method described); assay type: cell-based
T3 sequence (P30542 1-326): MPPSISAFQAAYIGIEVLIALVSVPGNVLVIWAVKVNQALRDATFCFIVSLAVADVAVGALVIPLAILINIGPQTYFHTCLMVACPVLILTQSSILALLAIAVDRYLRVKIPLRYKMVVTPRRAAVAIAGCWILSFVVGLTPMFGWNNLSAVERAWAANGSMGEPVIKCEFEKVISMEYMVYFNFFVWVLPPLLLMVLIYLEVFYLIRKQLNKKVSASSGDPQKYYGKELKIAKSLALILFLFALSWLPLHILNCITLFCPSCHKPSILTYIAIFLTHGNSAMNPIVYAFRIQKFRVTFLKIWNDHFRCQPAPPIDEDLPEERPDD

[4] = radioligand [3H]CGS21680, HEK293 membranes, room temperature 2 hours; read-out: Ki (nM) A2a binding

Ki [1, 4] [nM] | Ki [2] [nM] | Ki [3] [nM] | SMILES | Ki ([1]; read-out: Ki (nM) A2a binding; radioligand [3H]CGS21680, HEK293 membranes, room temperature 2 hours) [nM]
44.6 | 234 | 53 | COc1ccc(-c2nc(N)nc3c2Cc2ccccc2-3)cc1 [Compound 1] | 
2.03 | 6.87 | 5.32 | COc1ccc(-c2nc(N)nc3c2C(=O)c2ccccc2-3)cc1 [Compound 2] | 
0.885 | 2.63 | 15.6 | Nc1nc(-c2ccco2)c2c(n1)-c1ccccc1C2 [Compound 4] | 
5.36 | 9.64 | 27.1 | Nc1nc(-c2cccnc2)c2c(n1)-c1ccccc1C2=O [Compound 5] | 
3.9 | 4.56 | 16.4 | Nc1nc(-c2ccncc2)c2c(n1)-c1ccccc1C2=O [Compound 6] | 
 | 0.49 | 6.89 | Nc1nc(-c2nccs2)c2c(n1)-c1ccccc1C2=O [Compound 7] | 
58.4 | 5.5 | 11.6 | Nc1nc(-c2ccc(Cl)cc2)c2c(n1)-c1ccccc1C2=O [Compound 8] | 
20.8 | 4.85 | 7.69 | Nc1nc(-c2cccc([N+](=O)[O-])c2)c2c(n1)-c1ccccc1C2=O [Compound 9] | 
8.85 | 1.63 | 2.47 | COc1cccc(-c2nc(N)nc3c2C(=O)c2ccccc2-3)c1 [Compound 11] | 
33.5 | 32.5 | 172 | COc1ccccc1-c1nc(N)nc2c1C(=O)c1ccccc1-2 [Compound 12] | 
5.16 | 35.6 | 10.3 | Nc1nc(-c2cccc(O)c2)c2c(n1)-c1ccccc1C2=O [Compound 13] | 
3.23 | 0.258 | 3.46 | Nc1nc(-c2ccsc2)c2c(n1)-c1ccccc1C2=O [Compound 15] | 
1.75 | 0.169 | 5.22 | Nc1nc(-c2ccco2)c2c(n1)-c1ccc(Br)cc1C2=O [Compound 16] | 
6.3 | 67.1 | 111 | Nc1nc(-c2ccco2)c2c(n1)-c1cccc(O)c1C2=O [Compound 17] | 
318 | > 3000 | 189 | CSc1nc(N)nc2c1C(=O)c1c(N)cccc1-2 [Compound 18] | 
111 | 20.9 | 21.6 | CN(C)C=Nc1nc(-c2cccc(F)c2)c2c(n1)-c1ccccc1C2=O [Compound 19] | 
0.376 | 0.053 | 3.51 | Nc1nc(-c2ccco2)c2c(n1)-c1c(N)cccc1C2=O [Compound 21] | 
14.2 | 0.055 | 2.75 | Nc1nc(-c2ccco2)c2c(n1)-c1ccc(C(F)(F)F)cc1C2=O [Compound 22] | 
13.6 | 0.55 | 1.47 | Nc1nc(-c2ccco2)c2c(n1)-c1cc(C(F)(F)F)ccc1C2=O [Compound 23] | 
30.3 | > 3000 | 5.99 | CNc1nc(-c2ccccc2)c2c(n1)-c1ccccc1C2=O [Compound 24] | 
173 | 5.69 | 17.4 | Nc1nc(-c2ccco2)c2c(n1)-c1cc(Cl)c(Cl)cc1C2=O [Compound 25] | 
34.6 | 0.88 | 3.13 | Nc1nc(-c2ccco2)c2c(n1)-c1c(Cl)ccc(Cl)c1C2=O [Compound 26] | 
147 | 68.3 | > 1000 | CCN(CC)CCNc1nc(-c2ccccc2)c2c(n1)-c1ccccc1C2=O [Compound 27] | 
48.9 | 3.53 | 5.86 | Nc1nc(-c2ccc(F)c(F)c2)c2c(n1)-c1ccccc1C2=O [Compound 28] | 

Ki [1, 4] [nM] | Ki [2] [nM] | Ki [3] [nM] | SMILES | Ki ([1]; read-out: Ki (nM) A2a binding; radioligand [3H]CGS21680, HEK293 membranes, room temperature 2 hours) [nM]
20.9 | 1.42 | 4.27 | Nc1nc(-c2cc(F)cc(F)c2)c2c(n1)-c1ccccc1C2=O [Compound 29] | 
31.5 | 10.2 | 4.05 | COc1ccc(-c2nc(N)nc3c2C(=O)c2ccccc2-3)cn1 [Compound 30] | 
0.175 | 0.34 | 0.021 | C[C@H](O)[C@@H](O)c1cccc2c1-c1nc(N)nc(-c3ccccc3)c1C2=O [Compound 33] | 
560 |  |  | CCCn1cc(-c2nc(N)nc3c2C(=O)c2ccccc2-3)ccc1=O [Compound 34] | 
3.49 | 0.265 | 7.09 | Nc1nc(-c2ccco2)c2c(n1)-c1cc(Br)ccc1C2=O [Compound 35] | 
4.37 | 0.052 | 2.52 | Nc1nc(-c2ccco2)c2c(n1)-c1c(F)cccc1C2=O [Compound 36] | 
2.86 | 0.143 | 3.07 | COc1cccc2c1C(=O)c1c(-c3ccco3)nc(N)nc1-2 [Compound 37] | 
2.34 | 0.956 | 9.44 | Nc1nc(-c2ccc(F)cc2)c2c(n1)-c1ccccc1C2=O [Compound 38] | 
4.92 | 0.926 | 2.31 | Nc1nc(-c2cccc(F)c2)c2c(n1)-c1ccccc1C2=O [Compound 39] | 
88 | 575 | > 3000 | CSc1nc(N)nc2c1C(=O)c1ccccc1-2 [Compound 41] | 
39.9 | 3.68 | 2.34 | Nc1nc(Nc2ccccc2)c2c(n1)-c1ccccc1C2=O [Compound 43] | 
3.93 | 0.208 | 7.4 | Nc1nc(-c2ccoc2)c2c(n1)-c1ccccc1C2=O [Compound 44] | 
4.01 | 0.005 | 0.016 | Cc1ccc(-c2nc(N)nc3c2C(=O)c2ccccc2-3)o1 [Compound 45, 2-amino-4-(5-methyl-furan-2-yl)-indeno[1,2-d]pyrimidin-5-one] | 
51.1 | 40.1 | 119 | CN(C)CCN(C)Cc1cccc2c1C(=O)c1c(-c3ccccc3)nc(N)nc1-2 [Compound 49] | 
80.1 | 11.3 | 94.2 | CN1CCN(Cc2cccc3c2C(=O)c2c(-c4ccccc4)nc(N)nc2-3)CC1 [Compound 50] | 
36.8 | 3.26 | 32.9 | Nc1nc(-c2ccccc2)c2c(n1)-c1cccc(CN3CCOCC3)c1C2=O [Compound 51] | 
34.3 |  |  | CC(C)(C)OC(=O)NC1CCN(Cc2cccc3c2C(=O)c2c(-c4ccccc4)nc(N)nc2-3)CC1 [Compound 60] | 
29.8 |  |  | CCN(Cc1ccncc1)Cc1cccc2c1C(=O)c1c(-c3ccccc3)nc(N)nc1-2 [Compound 61] | 
58.4 |  |  | CN(Cc1ccco1)Cc1cccc2c1C(=O)c1c(-c3ccccc3)nc(N)nc1-2 [Compound 62] | 
0.59 |  | 0.18 | N#Cc1c(N)nc(-c2ccco2)c2c1-c1ccccc1C2=O [Compound 63, 9H-indeno[2,1-c]pyridine-4-carbonitrile, 3-amino-1-furan-2-yl-9-oxo-] | 
6.25 | 0.68 |  | CN(C)CCN(C)C(=O)c1c(N)nc(-c2ccco2)c2c1-c1ccccc1C2=O [Compound 77, 9H-indeno[2,1-c]pyridine-4-carboxylic acid, 3-amino-1-furan-2-yl-9-oxo-, (2-dimethylamino-ethyl)-methyl-amide] | 
17.6 | 1.58 |  | CC(CN(C)C)NC(=O)c1c(N)nc(-c2ccco2)c2c1-c1ccccc1C2=O (centres unmarked) [Compound 78, 9H-indeno[2,1-c]pyridine-4-carboxylic acid, 3-aminol-furan-2-yl-9-oxo-, (2-dimethylamino-1-methyl-ethyl)-amide] | 
508 |  |  | CCc1nc(N)c(C#N)c2c1C(=O)c1ccccc1-2 [Compound 85] | 

SMILES | Ki [1, 4] [nM] | Ki [2] [nM] | Ki [3] [nM] | Ki ([1]; read-out: Ki (nM) A2a binding; radioligand [3H]CGS21680, HEK293 membranes, room temperature 2 hours) [nM]
Nc1nc(-c2ccccc2)c2c(n1)-c1ccccc1C2=O [Compound 10, 2-amino-4-phenyl-indeno[1,2-d]pyrimidin-5-one] |  |  | 1.2 | 
C[C@H](O)[C@@H](O)c1cccc2c1C(=O)c1c(-c3ccccc3)nc(N)nc1-2 [Compound 32] |  | 0.634 | 9.89 | 3.55
